The text below walks through data of article PMC3702004, “Comparison of Intake and Systemic Relative Effect Potencies of Dioxin-like Compounds in Female Mice after a Single Oral Dose” (Environmental Health Perspectives, 2013).

For one data set, the system named is hepatic CYP1A1 activity (ethoxyresorufin-O-deethylase, EROD). The data set can be described thus: Hepatic EROD activity in hepatic microsomal fractions after single oral dose. It is filed as in vivo, female C57BL/6 mice. The following applies: dose metric Adm dose; 3 days after single oral dose. As for the experimental part:
(§1) Animals. Eight-week-old female C57BL/6 mice (Harlan laboratories, Venray, the Netherlands) were randomly assigned to treatment groups (six animals per group) and allowed to acclimate for 1.5 weeks. The animals were housed in groups in standard cages and conditions (23 ± 2°C, 50–60% relative humidity, 12-hr dark/light cycle) with free access to food and water. Mice received a single dose of test compound by oral gavage at a dosing volume of 10 mL/kg body weight (BW). Mice treated with corn oil vehicle (10 mL/kg BW) served as controls. For each congener, five different doses were administered, ranging from 0.5–100 μg/kg BW (TCDD) to 5,000–500,000 µg/kg BW (PCB-153). Detailed information on doses is provided in Supplemental Material, Table S1 (http://dx.doi.org/10.1289/ehp.1206336). On day 3 after dosing, animals were euthanized by CO2/O2 asphyxiation, and blood was immediately collected from the abdominal aorta. The liver, thymus, spleen, and adipose tissue were removed, weighed (liver, thymus, and spleen), snap frozen, and stored at –80°C. All animal treatments were performed with permission of the Animal Ethical Committee (DEC Utrecht) and performed according to the [Law on Animal Experiments (1977)]. Animals were treated humanely and with regard for alleviation of suffering.
EROD activity. We determined hepatic CYP1A1 activity using ethoxyresorufin-O-deethylase (EROD) activity in hepatic microsomal fractions as described by [Schulz et al. (2012)].
Data analysis. We obtained concentration–response curves using a sigmoidal dose–response nonlinear regression curve fit with variable slope (GraphPad Prism 6.01; GraphPad Software Inc., San Diego, CA, USA):
In this Hill equation, y is the dependent variable (EROD activity or fold induction of mRNA levels), x the independent variable (administered or systemic dose), E0 is the estimated background response level, Emax is the maximum response, b is the estimated median effective concentration (EC50), and n is the shaping parameter of the Hill curve.
Using the congener-specific BMR20TCDD concentration, REPs were calculated relatively to TCDD: […]
On to `Clc1ccc(-c2cc(Cl)c(Cl)c(Cl)c2Cl)cc1Cl` [PCB-156, 2,3,3´,4,4´,5-hexachlorobiphenyl], for which the “BMR20TCDD Liver EROD activity” value is 15,664 µg/kg BW.

Consider `Clc1cc2c(cc1Cl)Oc1c(cc(Cl)c(Cl)c1Cl)O2` [PeCDD, 1,2,3,7,8-pentachlorodibenzodioxin], for which the “BMR20TCDD Liver EROD activity” value was 0.54 µg/kg BW.

Take `Clc1cc2c(cc1Cl)Oc1cc(Cl)c(Cl)cc1O2` [TCDD, 2,3,7,8-tetrachlorodibenzodioxin, reference compound]: the “BMR20TCDD Liver EROD activity” value came to 0.29 µg/kg BW.

Staying with this data set, now noted: dose metric Syst adipose; 3 days after single oral dose.
For `Clc1ccc(-c2cc(Cl)c(Cl)c(Cl)c2Cl)cc1Cl` [PCB-156, 2,3,3´,4,4´,5-hexachlorobiphenyl], the “BMR20TCDD Liver EROD activity” value is given as 82,483 ng/g lipid.

In the case of `Clc1cc2c(cc1Cl)Oc1c(cc(Cl)c(Cl)c1Cl)O2` [PeCDD, 1,2,3,7,8-pentachlorodibenzodioxin], the “BMR20TCDD Liver EROD activity” value was 1.25 ng/g lipid.

On to `Clc1cc2c(cc1Cl)Oc1cc(Cl)c(Cl)cc1O2` [TCDD, 2,3,7,8-tetrachlorodibenzodioxin, reference compound], for which the “BMR20TCDD Liver EROD activity” value worked out at 1.23 ng/g lipid.

The same data set, now with this note: dose metric Syst plasma; 3 days after single oral dose.
As to `Clc1ccc(-c2cc(Cl)c(Cl)c(Cl)c2Cl)cc1Cl` [PCB-156, 2,3,3´,4,4´,5-hexachlorobiphenyl], the “BMR20TCDD Liver EROD activity” value is reported as 98,188 ng/g lipid.

As to `Clc1cc2c(cc1Cl)Oc1c(cc(Cl)c(Cl)c1Cl)O2` [PeCDD, 1,2,3,7,8-pentachlorodibenzodioxin], the “BMR20TCDD Liver EROD activity” value is listed as 2.31 ng/g lipid.

On to `Clc1cc2c(cc1Cl)Oc1cc(Cl)c(Cl)cc1O2` [TCDD, 2,3,7,8-tetrachlorodibenzodioxin, reference compound], for which the “BMR20TCDD Liver EROD activity” value is 1.38 ng/g lipid.

Staying with this data set, now noted: relative to TCDD; dose metric Adm dose (µg/kg BW).
`Clc1ccc(-c2cc(Cl)c(Cl)c(Cl)c2Cl)cc1Cl` [PCB-156, 2,3,3´,4,4´,5-hexachlorobiphenyl]: the “REP Liver EROD activity” value was 0.00002.

On to `Clc1cc2c(cc1Cl)Oc1c(cc(Cl)c(Cl)c1Cl)O2` [PeCDD, 1,2,3,7,8-pentachlorodibenzodioxin], for which the “REP Liver EROD activity” value is given as 0.5.

With `Clc1cc2c(cc1Cl)Oc1cc(Cl)c(Cl)cc1O2` [TCDD, 2,3,7,8-tetrachlorodibenzodioxin, reference compound], the “REP Liver EROD activity” value is given as 1.

The same data set, now with this note: relative to TCDD; dose metric Syst adipose (ng/g lipid).
For `Clc1ccc(-c2cc(Cl)c(Cl)c(Cl)c2Cl)cc1Cl` [PCB-156, 2,3,3´,4,4´,5-hexachlorobiphenyl], the “REP Liver EROD activity” value stood at 0.00001.

Turning to `Clc1cc2c(cc1Cl)Oc1c(cc(Cl)c(Cl)c1Cl)O2` [PeCDD, 1,2,3,7,8-pentachlorodibenzodioxin], the “REP Liver EROD activity” value came to 1.

For the compound `Clc1cc2c(cc1Cl)Oc1cc(Cl)c(Cl)cc1O2` [TCDD, 2,3,7,8-tetrachlorodibenzodioxin, reference compound], the “REP Liver EROD activity” value is listed as 1.

The data set is the same for the next values; noted with them: relative to TCDD; dose metric Syst liver (ng/g lipid).
For the compound `Clc1ccc(-c2cc(Cl)c(Cl)c(Cl)c2Cl)cc1Cl` [PCB-156, 2,3,3´,4,4´,5-hexachlorobiphenyl], the “REP Liver EROD activity” value was 0.0002.

`Clc1cc2c(cc1Cl)Oc1c(cc(Cl)c(Cl)c1Cl)O2` [PeCDD, 1,2,3,7,8-pentachlorodibenzodioxin]: the “REP Liver EROD activity” value amounted to 0.3.

Take `Clc1cc2c(cc1Cl)Oc1cc(Cl)c(Cl)cc1O2` [TCDD, 2,3,7,8-tetrachlorodibenzodioxin, reference compound]: the “REP Liver EROD activity” value is given as 1.

The data set is the same for the next values; noted with them: relative to TCDD; dose metric Syst liver (ng/g liver).
On to `Clc1ccc(-c2cc(Cl)c(Cl)c(Cl)c2Cl)cc1Cl` [PCB-156, 2,3,3´,4,4´,5-hexachlorobiphenyl], for which the “REP Liver EROD activity” value was 0.0002.

As to `Clc1cc2c(cc1Cl)Oc1c(cc(Cl)c(Cl)c1Cl)O2` [PeCDD, 1,2,3,7,8-pentachlorodibenzodioxin], the “REP Liver EROD activity” value was determined as 0.3.

Turning to `Clc1cc2c(cc1Cl)Oc1cc(Cl)c(Cl)cc1O2` [TCDD, 2,3,7,8-tetrachlorodibenzodioxin, reference compound], the “REP Liver EROD activity” value is reported as 1.

Still in this data set, the particulars now being: relative to TCDD; dose metric Syst plasma (ng/g lipid).
Take `Clc1ccc(-c2cc(Cl)c(Cl)c(Cl)c2Cl)cc1Cl` [PCB-156, 2,3,3´,4,4´,5-hexachlorobiphenyl]: the “REP Liver EROD activity” value is 0.00001.

For the compound `Clc1cc2c(cc1Cl)Oc1c(cc(Cl)c(Cl)c1Cl)O2` [PeCDD, 1,2,3,7,8-pentachlorodibenzodioxin], the “REP Liver EROD activity” value is listed as 0.6.

Consider `Clc1cc2c(cc1Cl)Oc1cc(Cl)c(Cl)cc1O2` [TCDD, 2,3,7,8-tetrachlorodibenzodioxin, reference compound], for which the “REP Liver EROD activity” value is listed as 1.

Another data set concerns Cyp1a1 mRNA in PBLs. The data set can be described thus: Cyp1a1 gene expression in peripheral blood lymphocytes. The following applies: dose metric Adm dose; 3 days after single oral dose. It is filed as in vivo, female C57BL/6 mice. On the procedure:
as §1
Plasma and PBL isolation. Blood from two mice was pooled (total volume of approximately 1.4 mL); plasma and PBLs were then isolated using Ficoll Paque gradient (GE Healthcare Europe, Diegem, Belgium). Plasma samples were stored at –80°C until compound analysis. Isolated lymphocytes were lysed with RLT buffer (QIAGEN, Venlo, the Netherlands) as described in the QIAGEN RNAeasy kit protocol and stored at –80°C until use.
RNA isolation and quantitative real-time polymerase chain reaction (PCR). Total RNA was isolated from liver and PBLs using a QIAGEN RNeasy kit (QIAGEN). Purity and concentration of the isolated RNA was determined by measuring the absorbance ratio at 260/280 nm and 230/260 nm with a Nanodrop 2000 spectrophotometer (Thermo Scientific, Asheville, NC, USA). RNA was reverse transcribed to complementary DNA (cDNA) using the iScript cDNA synthesis Kit (Bio-Rad, Veenendaal, the Netherlands). Quantitative real-time PCR analyses were performed using the iQ Real-Time PCR Detection System with SYBR green (Bio-Rad). Amplification reactions were set up with […] containing 12.5 μL iQ SYBR Green Supermix (Bio-rad), 0.5 μL distilled H2O, 1 μL (10 μM) forward primer, 1 μL (10 μM) reverse primer, and 10 μL first strand cDNA (10X diluted). Primer sequences were as follows: Cyp1a1: forward-5´-GGTTAACCATGACCGGGAACT-3´ and reverse-5´-TGCCCAAACCAAAGAGAGTGA-3´ ([Schulz et al. 2012]); Cyp1a2: forward-5´-ACATTCCCAAGGAGCGCTGTATCT-3´ and reverse-5´-GTCGATGGCCGAGTTGTTATTGGT-3´ ([Flaveny et al. 2010]); Cyp1b1: forward-5´-GTGGCTGCTCATCCTCTTTACC-3´ and reverse-5´-CCCACAACCTGGTCCAACTC-3´ ([Berge et al. 2004]); β-actin: forward-5´-ATGCTCCCCGGGCTGTAT-3´ and reverse-5´-CATAGGAGTCCTTCTGACCCATTC-3´ ([Schulz et al. 2012]). All primers were run through the National Center for Biotechnology Information Primer-BLAST database (http://www.ncbi.nlm.nih.gov/tools/primer-blast/) to confirm specificity and validate for optimal annealing temperature (60°C for all primers) and efficiency. […] The following program was used for denaturation and amplification of cDNA: 3 min at 95°C, followed by 40 cycles of 15 sec at 95°C and 45 sec at 60°C. Gene expression for each sample was expressed as threshold cycle (Ct), normalized to the reference gene β-actin (ΔCt). We calculated fold induction relative to the control group.
Data analysis. We obtained concentration–response curves using a sigmoidal dose–response nonlinear regression curve fit with variable slope (GraphPad Prism 6.01; GraphPad Software Inc., San Diego, CA, USA): […]
For the compound `Clc1ccc(-c2cc(Cl)c(Cl)c(Cl)c2Cl)cc1Cl` [PCB-156, 2,3,3´,4,4´,5-hexachlorobiphenyl], the “BMR20TCDD PBLs Cyp1a1 mRNA” value is reported as 747,734 µg/kg BW.

Consider `Clc1cc2c(cc1Cl)Oc1c(cc(Cl)c(Cl)c1Cl)O2` [PeCDD, 1,2,3,7,8-pentachlorodibenzodioxin], for which the “BMR20TCDD PBLs Cyp1a1 mRNA” value worked out at 33.7 µg/kg BW.

With `Clc1cc2c(cc1Cl)Oc1cc(Cl)c(Cl)cc1O2` [TCDD, 2,3,7,8-tetrachlorodibenzodioxin, reference compound], the “BMR20TCDD PBLs Cyp1a1 mRNA” value was found to be 22.4 µg/kg BW.

The data set is the same for the next values; noted with them: dose metric Syst plasma; 3 days after single oral dose.
`Clc1ccc(-c2cc(Cl)c(Cl)c(Cl)c2Cl)cc1Cl` [PCB-156, 2,3,3´,4,4´,5-hexachlorobiphenyl]: the “BMR20TCDD PBLs Cyp1a1 mRNA” value is recorded as 2,359,081 ng/g lipid.

Turning to `Clc1cc2c(cc1Cl)Oc1c(cc(Cl)c(Cl)c1Cl)O2` [PeCDD, 1,2,3,7,8-pentachlorodibenzodioxin], the “BMR20TCDD PBLs Cyp1a1 mRNA” value was found to be 34.0 ng/g lipid.

With `Clc1cc2c(cc1Cl)Oc1cc(Cl)c(Cl)cc1O2` [TCDD, 2,3,7,8-tetrachlorodibenzodioxin, reference compound], the “BMR20TCDD PBLs Cyp1a1 mRNA” value is reported as 50.6 ng/g lipid.

The same data set, now with this note: relative to TCDD; dose metric Adm dose (µg/kg BW).
In the case of `Clc1ccc(-c2cc(Cl)c(Cl)c(Cl)c2Cl)cc1Cl` [PCB-156, 2,3,3´,4,4´,5-hexachlorobiphenyl], the “REP PBLs Cyp1a1 mRNA” value was 0.00003.

As to `Clc1cc2c(cc1Cl)Oc1c(cc(Cl)c(Cl)c1Cl)O2` [PeCDD, 1,2,3,7,8-pentachlorodibenzodioxin], the “REP PBLs Cyp1a1 mRNA” value was found to be 0.7.

As to `Clc1cc2c(cc1Cl)Oc1cc(Cl)c(Cl)cc1O2` [TCDD, 2,3,7,8-tetrachlorodibenzodioxin, reference compound], the “REP PBLs Cyp1a1 mRNA” value came out at 1.

The data set is the same for the next values; noted with them: relative to TCDD; dose metric Syst plasma (ng/g lipid).
`Clc1ccc(-c2cc(Cl)c(Cl)c(Cl)c2Cl)cc1Cl` [PCB-156, 2,3,3´,4,4´,5-hexachlorobiphenyl]: the “REP PBLs Cyp1a1 mRNA” value is recorded as 0.00002.

Regarding `Clc1cc2c(cc1Cl)Oc1c(cc(Cl)c(Cl)c1Cl)O2` [PeCDD, 1,2,3,7,8-pentachlorodibenzodioxin], the “REP PBLs Cyp1a1 mRNA” value is recorded as 1.5.

As for `Clc1cc2c(cc1Cl)Oc1cc(Cl)c(Cl)cc1O2` [TCDD, 2,3,7,8-tetrachlorodibenzodioxin, reference compound], the “REP PBLs Cyp1a1 mRNA” value is 1.

Test system in another data set: not given
Assay: not given
Conditions: CYP1A2 knockout mice; ref Diliberto et al. 1997; cited from earlier work.
Consider `Clc1cc2c(cc1Cl)Oc1cc(Cl)c(Cl)cc1O2` [TCDD, 2,3,7,8-tetrachlorodibenzodioxin, reference compound], for which the “Liver:adipose ratio” value is less than 0.3.
